Our source for the Kb values is patent US20140121258A1, “COMPOUNDS ACT AT MULTIPLE PROSTAGLANDIN RECEPTORS GIVING A GENERAL ANTI-INFLAMMATORY RESPONSE” (ALLERGAN, INC., priority 2010, published 2014).

Holding throughout (assay type): cell-based
The target of assay [1] is T1, human prostanoid EP4 receptor (Homo sapiens, UniProt P35408).
T1 construct: expressed in transfected cells
Kind of assay: FLIPR Ca2+ signaling antagonist assay, EP4 receptor stable cell line. To be noted: HEK-293 EBNA stable cells with chimeric Gqs, standard agonist PGE2; NA = inactive (no antagonism or Kb≧10,000 nM). The protocol: (§1) The above compounds were tested for PG antagonist activity as follows using human recombinant prostanoid receptor (DP1, EP1-4, FP, IP and TP) stable cell lines:
(§2) In order to measure the response of Gs and Gi coupled prostanoid receptors as a Ca^2+ signal, chimeric G protein cDNAs were used. Stable cell lines over-expressing human prostanoid DP1, EP1-4, FP, IP, and TP receptors were established as follows:
(§3) Briefly, human prostanoid DP1, EP2, and EP4 receptor cDNAs were co-transfected with chimeric Gqs cDNA containing a haemagglutanin (HA) epitope; human prostanoid EP3 receptors were co-transfected with chimeric Gqi-HA; human EP1, FP, IP, and TP receptor cDNAs were expressed with no exogenous G-proteins. Gqs and Gqi chimeric cDNAs (Molecular Devices, Sunnyvale, Calif., U.S.A.), as well as cDNAs of prostanoid receptors, were cloned into a pCEP4 vector with a hygromycin B selection marker. Transfection into HEK-293 EBNA (Epstein-Barr virus nuclear antigen) cells was achieved by the FuGENE 6 transfection Reagent (Roche Applied Science, Indianapolis, Ind., USA). Stable transfectants were selected according to hygromycin resistance. Because Gqs and Gqi contained an HA epitope, G-protein expression was detected by Western blotting analysis using anti-mouse HA monoclonal antibody and horseradish peroxidase (HRP)-conjugated secondary antibody, while functional expression of prostanoid receptors was detected by FLIPR screening (Matias et al., 2004). These stable cell lines were validated using previously published antagonists at 10 μM against serial dilutions of standard agonists by FLIPR functional assays for Ca^2+ Signaling (as described below).
(§4) Ca^2+ signaling studies were performed using a FLIPR TETRA system (Molecular Devices, Sunnyvale, Calif., USA) in the 384-format. This is a high-throughput instrument for cell-based assays to monitor Ca^2+ signaling associated with GPCRs and ion channels. Cells were seeded at a density of 5×10^4 cells/well in BioCoat poly-D-lysine coated, black wall, clear bottom 384-well plates (BD Biosciences, Franklin lakes, NJ, USA) and allowed to attach overnight in an incubator at 37° C. The cells were then washed twice with HBSS-HEPES buffer (Hanks' balanced salt solution without bicarbonate and phenol red, 20 mM HEPES, pH 7.4) using an ELx405 Select CW Microplate Washer (BioTek, Winooski, Vt., USA). After 60 min of dye-loading in the dark using the Ca^2+-sensitive dye Fluo-4AM (Invitrogen, Carlsbad, Calif., USA), at a final concentration of 2×10^−6M, the plates were washed 4 times with HBSS-HEPES buffer to remove excess dye and leaving 50 μl of buffer in each well. The plates were then placed in the FLIPR TETRA instrument and allowed to equilibrate at 37° C. AGN-211377 was added in a 25 μl volume to each well to give final concentrations of 0.1 μM, 0.3 μM, 1 μM, 3 μM, 10 μM, and 30 μM; or 0.067 μM, 0.1 μM, 0.2 μM, 0.3 μM, 0.67 μM, and 1 μM for cells over-expressing TP receptors. After 4.5 minutes, a 7-point serial dilution of the standard agonist for the corresponding receptor, in a 25 μl volume was injected at the final concentrations from 10^−11M to 10^−5M in 10-fold serial dilution increments for cells expressing human recombinant DP1, EP1, EP2, EP3, EP4, FP, and IP receptors. The dose range for the standard agonist for human recombinant TP receptors was from 10^−12M to 10^−6M. HBSS-HEPES buffer was used as the negative control for the standard agonists. Cells were excited with LED (light emitting diode) excitation at 470-495 nm and emission was measured through an emission filter at 515-575 nm. Assay plates were read for 3.5 minutes using the FLIPR^TETRA. The peak increase in fluorescence intensity was recorded for each well. On each plate, negative controls, dose response of positive controls, and co-treatments of antagonist-agonist for each dose were in triplicates. Standard agonists were as follows: DP=BW 245C, EP1-EP4=PGE2, FP=17-phenyl-PGF2α, IP=Cicaprost, and TP=U-46619. […]

Assay [2] deals with T2, human prostanoid EP3 receptor (Homo sapiens, UniProt P43115).
T2 construct: expressed in transfected cells
T2 sequence (P43115 1-390): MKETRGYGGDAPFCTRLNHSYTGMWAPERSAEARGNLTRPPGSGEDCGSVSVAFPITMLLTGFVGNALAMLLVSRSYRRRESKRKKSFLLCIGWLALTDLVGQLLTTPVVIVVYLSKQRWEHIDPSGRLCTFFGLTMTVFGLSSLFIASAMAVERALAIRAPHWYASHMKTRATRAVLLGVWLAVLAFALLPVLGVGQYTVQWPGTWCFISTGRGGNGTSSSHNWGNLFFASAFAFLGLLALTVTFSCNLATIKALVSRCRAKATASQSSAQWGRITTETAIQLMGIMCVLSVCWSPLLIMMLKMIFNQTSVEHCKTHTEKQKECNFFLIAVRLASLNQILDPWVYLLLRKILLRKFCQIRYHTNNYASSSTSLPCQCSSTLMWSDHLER
The experiment in a line: FLIPR Ca2+ signaling antagonist assay, EP3 receptor stable cell line. As to conditions: HEK-293 EBNA stable cells with chimeric Gqi, standard agonist PGE2; NA = inactive (no antagonism or Kb≧10,000 nM). The protocol:
as §1, §2, §3
Ca^2+ signaling studies were performed using a FLIPR TETRA system (Molecular Devices, Sunnyvale, Calif., USA) in the 384-format. […] Cells were excited with LED (light emitting diode) excitation at 470-495 nm and emission was measured through an emission filter at 515-575 nm. Assay plates were read for 3.5 minutes using the FLIPR^TETRA. The peak increase in fluorescence intensity was recorded for each well. […]

Assay [3] deals with T3, human prostanoid EP2 receptor (Homo sapiens, UniProt P43116).
T3 construct: expressed in transfected cells
The experiment in a line: FLIPR Ca2+ signaling antagonist assay, EP2 receptor stable cell line. To be noted: HEK-293 EBNA stable cells with chimeric Gqs, standard agonist PGE2; NA = inactive (no antagonism or Kb≧10,000 nM). The protocol:
as §1, §2, §3, §4

Assay [4] has as its target T4, human prostanoid DP1 receptor (Homo sapiens, UniProt Q13258).
T4 construct: expressed in transfected cells
T4 sequence (Q13258 1-359): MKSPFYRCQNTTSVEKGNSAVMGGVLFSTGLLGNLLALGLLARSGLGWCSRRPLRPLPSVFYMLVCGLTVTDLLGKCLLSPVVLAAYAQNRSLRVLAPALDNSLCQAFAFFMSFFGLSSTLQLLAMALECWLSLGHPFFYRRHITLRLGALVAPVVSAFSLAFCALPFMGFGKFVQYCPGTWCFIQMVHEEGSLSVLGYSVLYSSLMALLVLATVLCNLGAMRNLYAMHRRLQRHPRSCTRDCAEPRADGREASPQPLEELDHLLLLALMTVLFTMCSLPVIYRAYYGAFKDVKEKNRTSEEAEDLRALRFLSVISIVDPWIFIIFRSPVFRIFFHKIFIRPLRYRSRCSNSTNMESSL
Kind of assay: FLIPR Ca2+ signaling antagonist assay, DP1 receptor stable cell line. As to conditions: HEK-293 EBNA stable cells with chimeric Gqs, standard agonist BW 245C; NA = inactive (no antagonism or Kb≧10,000 nM). The protocol: as §1, §2, §3, §4

T3 sequence (P43116 whole entry): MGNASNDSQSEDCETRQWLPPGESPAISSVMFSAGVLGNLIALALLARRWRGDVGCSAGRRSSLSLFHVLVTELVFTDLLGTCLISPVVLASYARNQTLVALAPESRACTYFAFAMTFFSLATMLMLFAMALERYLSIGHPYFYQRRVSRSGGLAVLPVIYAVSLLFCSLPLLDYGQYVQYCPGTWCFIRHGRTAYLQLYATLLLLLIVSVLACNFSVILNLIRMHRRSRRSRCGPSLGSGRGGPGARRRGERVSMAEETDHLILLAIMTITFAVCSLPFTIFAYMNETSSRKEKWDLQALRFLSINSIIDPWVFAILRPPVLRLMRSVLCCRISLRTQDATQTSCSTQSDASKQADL
T1 sequence (P35408 whole entry): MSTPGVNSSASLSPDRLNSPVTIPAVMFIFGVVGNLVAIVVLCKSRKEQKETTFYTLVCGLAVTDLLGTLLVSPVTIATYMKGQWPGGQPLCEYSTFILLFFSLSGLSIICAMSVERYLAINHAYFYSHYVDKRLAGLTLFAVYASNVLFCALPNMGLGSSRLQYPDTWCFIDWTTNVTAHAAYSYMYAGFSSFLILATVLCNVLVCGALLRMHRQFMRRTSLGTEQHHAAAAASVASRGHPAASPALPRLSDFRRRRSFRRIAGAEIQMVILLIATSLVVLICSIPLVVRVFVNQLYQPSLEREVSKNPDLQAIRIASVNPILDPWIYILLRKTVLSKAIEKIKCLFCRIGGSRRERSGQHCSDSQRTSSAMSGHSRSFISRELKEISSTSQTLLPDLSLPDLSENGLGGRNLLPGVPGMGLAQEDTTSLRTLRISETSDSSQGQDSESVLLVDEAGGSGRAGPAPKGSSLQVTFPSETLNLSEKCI

One may read the Kb as the affinity of an antagonist, worked out from how it opposes an agonist. A higher Kb goes with a less potent antagonist. In the case of `CCC(CC)COc1ccc(Cl)cc1Cn1nc(CCC(=O)O)cc1C` [Example 3a, 3-{1-[5-Chloro-2-(2-ethyl-butoxy)-benzyl]-5-methyl-1H-pyrazol-3-yl}-propionic acid], the Kb in assay [1] is 68 nM; in assay [2] it was 7100 nM; in assay [3] it was 2900 nM; in assay [4], 220 nM.

Consider `Cc1cc(CCC(=O)O)nn1Cc1cc(Br)ccc1OCC1CCCC1` [Example 4, 3-[1-(5-Bromo-2-cyclopentylmethoxybenzyl)-5-methyl-1H-pyrazol-3-yl]-propionic acid], for which the Kb is 120 nM in assay [1], 7800 nM in assay [2], 1200 nM in assay [3] and 240 nM in assay [4].

In the case of `CCC(CC)COc1ccc(Br)cc1Cn1nc(CCC(=O)O)cc1C` [Example 3, 3-{1-[5-Bromo-2-(2-ethyl-butoxy)-benzyl]-5-methyl-1H-pyrazol-3-yl}-propionic acid], the figures for the Kb in assay [1], in assay [3] and in assay [4] were 85 nM, 2300 nM and 140 nM, respectively.

`Cc1cc(CCC(=O)NS(=O)(=O)C(F)(F)F)nn1Cc1cc(Cl)ccc1OCc1ccc(Cl)cc1` [Example 1, N-(3-{1-[5-Chloro-2-(4-Chloro-Benzyloxy)-Benzyl]-5-Methyl-1H-Pyrazol-3-yl}-Propionyl)-C,C,C-Trifluoromethanesulfonamide]: the Kb in assay [1] was 150 nM; in assay [2], 1400 nM; in assay [3], 3100 nM; in assay [4], 280 nM.
